Here are results for six molecules from BindingDB's records for doi:10.1038/nchembio.211 (Praecis Pharmaceuticals, 2009).

Common to all, as to settings: pH 9.5; 16 °C
The target in assay [1] is Mitogen-activated protein kinase 14 (Homo sapiens, UniProt Q16539). The assay can be described thus: MAPK p38 Inhibition Assay. The text has this:
Selection of DNA-encoded libraries (DELs), which are covalent attachment of encoding double stranded DNA to small-molecule created using a combination of enzymatic and chemical synthesis in a split-and-pool format against p38 mitogen-activated protein kinase

Assay [2] concerns the target T1, Aurora kinase A (Homo sapiens, UniProt O14965).
T1 sequence (O14965 whole entry): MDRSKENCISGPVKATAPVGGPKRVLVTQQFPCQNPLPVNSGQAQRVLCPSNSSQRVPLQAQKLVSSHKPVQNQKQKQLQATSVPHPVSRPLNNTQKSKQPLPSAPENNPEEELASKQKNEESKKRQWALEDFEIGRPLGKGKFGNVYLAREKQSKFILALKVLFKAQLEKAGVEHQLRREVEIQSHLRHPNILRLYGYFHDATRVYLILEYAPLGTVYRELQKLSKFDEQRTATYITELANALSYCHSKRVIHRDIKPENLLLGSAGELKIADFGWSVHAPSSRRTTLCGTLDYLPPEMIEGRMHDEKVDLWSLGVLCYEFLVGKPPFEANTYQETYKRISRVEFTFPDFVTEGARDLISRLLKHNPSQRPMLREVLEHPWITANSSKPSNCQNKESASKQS
The assay can be described thus: Aurora A Inhibition Assay. The text has this: (§1) Selection of DNA-encoded libraries (DELs) which are covalent attachment of encoding double stranded DNA to small-molecule created using a combination of enzymatic and chemical synthesis in a split-and-pool format against Aurora A kinase

For assay [3], the target named is T2, Aurora kinase A (Homo sapiens, UniProt O14965).
T2 sequence (O14965 whole entry): T1 sequence (O14965 whole entry) with V57I
The assay is described as follows: Aurora A Inhibition Assay.
Description: as §1
The source holds these as a separate data set.

Numbering of substitutions follows the chain as printed.

Mitogen-activated protein kinase 14, sequence (Q16539 whole entry): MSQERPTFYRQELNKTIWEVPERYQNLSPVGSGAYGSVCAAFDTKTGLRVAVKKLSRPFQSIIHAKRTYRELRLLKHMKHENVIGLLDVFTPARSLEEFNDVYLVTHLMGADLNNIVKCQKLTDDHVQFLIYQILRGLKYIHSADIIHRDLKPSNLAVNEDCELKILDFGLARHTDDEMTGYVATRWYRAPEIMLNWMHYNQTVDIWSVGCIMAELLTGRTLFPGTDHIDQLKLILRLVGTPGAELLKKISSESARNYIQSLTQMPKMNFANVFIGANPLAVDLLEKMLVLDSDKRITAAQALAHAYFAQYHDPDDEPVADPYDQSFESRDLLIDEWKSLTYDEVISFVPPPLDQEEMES

Consider `CNC(=O)[C@H](Cc1ccc2c(c1)COC(C)(C)O2)Nc1nc(NCC(C)C)nc(-n2cnc3cc(C(=O)N4CCCc5ccccc54)ccc32)n1` [(S)-3-(2,2-Dimethyl-4H-benzo[d][1,3]dioxin-6-yl)-2-(4-(isobutylamino)-6-(5-(1,2,3,4-tetrahydroquinoline-1-carbonyl)-1H-benzo[d]imidazol-1-yl)-1,3,5-triazin-2-ylamino)-N-methylpropanamide], for which the EC50 (usually the concentration giving half of the maximal effect) in assay [1] is 0.25 µM.

On to `CNc1nc(NCCc2ccccc2OC)nc(Nc2ccc3ncccc3c2)n1` [DEL-A, 12], for which the IC50 (in general, the concentration needed to halve the response being measured) on Aurora kinase A [2] was determined as 5.1 µM.

For the molecule `COc1ccccc1CCNc1nc(Nc2ccc3ncccc3c2)nc(NC(Cc2c[nH]c3ncccc23)C(N)=O)n1` (stereo unspecified) [2-(4-(2-Methoxyphenethylamino)-6-(quinolin-6-ylamino)-1,3,5-triazin-2-ylamino)-3-(1H-pyrrolo[2,3-b]pyridin-3-yl)propanamide], on Aurora kinase A [3], the IC50 is 3.7 µM.

With `CCCCN(C)c1nc(NCCc2ccccc2OC)nc(NC(Cc2c[nH]c3ncccc23)C(N)=O)n1` (stereo unspecified) [2-(4-(Butyl(methyl)amino)-6-(2-methoxyphenethylamino)-1,3,5-triazin-2-ylamino)-3-(1H-pyrrolo[2,3-b]pyridin-3-yl)propanamide], the IC50 on Aurora kinase A [3] turned out to be 3.8 µM.

Turning to `CCCCN(C)c1nc(NCCc2ccccc2OC)nc(NCCc2c[nH]c3ncccc23)n1` [N2-(2-(1H-Pyrrolo[2,3-b]pyridin-3-yl)ethyl)-N4-butyl-N6-(2-methoxyphenethyl)-N4-methyl-1,3,5-triazine-2,4,6-triamine], the IC50 on Aurora kinase A [3] was found to be 1.2 µM.

On to `COc1ccccc1CCNc1nc(NC(Cc2c[nH]c3ncccc23)C(N)=O)nc(N(C)[C@@H](C)c2ccccc2)n1` (stereo partly drawn) [2-(4-(2-Methoxyphenethylamino)-6-(methyl((S)-1-phenylethyl)amino)-1,3,5-triazin-2-ylamino)-3-(1H-pyrrolo[2,3-b]pyridin-3-yl)propanamide], for which, on Aurora kinase A [3], the IC50 turned out to be 6.3 µM.
